Reference: the supplement of paper PMC10307832

Legend:
Experiment in all cases: relative viability (nuclei count vs DMSO), 5 days (fraction); higher = more cells survive
[1] = compound: CC(C)=CC[C@@H](O)C1=CC(=O)c2c(O)ccc(O)c2C1=O [Shikonin] + CC1(C)CCC(c2ccc(Cl)cc2)=C(CN2CCN(c3ccc(C(=O)NS(=O)(=O)c4ccc(N[C@H](CCN5CCOCC5)CSc5ccccc5)c(S(=O)(=O)C(F)(F)F)c4)cc3)CC2)C1 [Navitoclax] (partner 0.5 µM)
Summary of the method: (§1)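 Dosing by pin tool came one day after lung cancer cell lines were seeded in 1536-well plates, using either one drug or a fixed anchor-drug dose plus five library-drug doses (not always all listed) in √10 steps. After 5 days, nuclei were counted on 4× images. Relative viability is treated-well nuclei count divided by vehicle-well nuclei count, and values are medians of duplicate plates.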

[2] = compound: CC(C)=CC[C@@H](O)C1=CC(=O)c2c(O)ccc(O)c2C1=O [Shikonin] + N=C(N)NC(=N)NCCc1ccccc1 [Phenformin] (partner 250 µM)
Summary of the method: as §1

[3] = compound: CC(C)N(CCCNC(=O)Nc1ccc(C(C)(C)C)cc1)C[C@H]1O[C@@H](n2ccc3c(N)ncnc32)[C@H](O)[C@@H]1O + Cc1nc(NC(=O)N2CCC[C@H]2C(N)=O)sc1-c1ccnc(C(C)(C)C(F)(F)F)c1 [Alpelisib] (partner 2 µM)
Summary of the method: as §1

[4] = compound: CC(C)N(CCCNC(=O)Nc1ccc(C(C)(C)C)cc1)C[C@H]1O[C@@H](n2ccc3c(N)ncnc32)[C@H](O)[C@@H]1O + Nc1nc2[nH]cc(CCc3ccc(C(=O)N[C@@H](CCC(=O)O)C(=O)O)cc3)c2c(=O)[nH]1 [Pemetrexed] (partner 0.2 µM)
Summary of the method: as §1

With UMC-11 the relative viability ([1]; first compound 0.01 µM) was 0.282, the relative viability ([1]; first compound 0.1 µM) was 0.324 and the relative viability ([1]; first compound 0.3162 µM) was 0.31. The relative viability ([1]; first compound 1 µM) was 0.318, the relative viability ([2]; first compound 0.01 µM) was 0.337 and the relative viability ([2]; first compound 0.1 µM) was 0.329. The relative viability ([2]; first compound 0.3162 µM) was 0.348, the relative viability ([2]; first compound 1 µM) was 0.331 and the relative viability ([3]; first compound 0.08 µM) was 0.957. For the same cell line, the relative viability ([3]; first compound 0.253 µM) was 0.891, the relative viability ([3]; first compound 0.8 µM) was 1.09 and the relative viability ([3]; first compound 2.53 µM) was 0.958. It also gave a relative viability ([3]; first compound 8 µM) of 0.964, a relative viability ([4]; first compound 0.08 µM) of 0.803 and a relative viability ([4]; first compound 0.253 µM) of 0.748. For the same cell line, the relative viability ([4]; first compound 0.8 µM) was 0.791, the relative viability ([4]; first compound 2.53 µM) was 0.79 and the relative viability ([4]; first compound 8 µM) was 0.806.
